Molecules are shown by their SMILES.

T1 sequence (Q00975 whole entry): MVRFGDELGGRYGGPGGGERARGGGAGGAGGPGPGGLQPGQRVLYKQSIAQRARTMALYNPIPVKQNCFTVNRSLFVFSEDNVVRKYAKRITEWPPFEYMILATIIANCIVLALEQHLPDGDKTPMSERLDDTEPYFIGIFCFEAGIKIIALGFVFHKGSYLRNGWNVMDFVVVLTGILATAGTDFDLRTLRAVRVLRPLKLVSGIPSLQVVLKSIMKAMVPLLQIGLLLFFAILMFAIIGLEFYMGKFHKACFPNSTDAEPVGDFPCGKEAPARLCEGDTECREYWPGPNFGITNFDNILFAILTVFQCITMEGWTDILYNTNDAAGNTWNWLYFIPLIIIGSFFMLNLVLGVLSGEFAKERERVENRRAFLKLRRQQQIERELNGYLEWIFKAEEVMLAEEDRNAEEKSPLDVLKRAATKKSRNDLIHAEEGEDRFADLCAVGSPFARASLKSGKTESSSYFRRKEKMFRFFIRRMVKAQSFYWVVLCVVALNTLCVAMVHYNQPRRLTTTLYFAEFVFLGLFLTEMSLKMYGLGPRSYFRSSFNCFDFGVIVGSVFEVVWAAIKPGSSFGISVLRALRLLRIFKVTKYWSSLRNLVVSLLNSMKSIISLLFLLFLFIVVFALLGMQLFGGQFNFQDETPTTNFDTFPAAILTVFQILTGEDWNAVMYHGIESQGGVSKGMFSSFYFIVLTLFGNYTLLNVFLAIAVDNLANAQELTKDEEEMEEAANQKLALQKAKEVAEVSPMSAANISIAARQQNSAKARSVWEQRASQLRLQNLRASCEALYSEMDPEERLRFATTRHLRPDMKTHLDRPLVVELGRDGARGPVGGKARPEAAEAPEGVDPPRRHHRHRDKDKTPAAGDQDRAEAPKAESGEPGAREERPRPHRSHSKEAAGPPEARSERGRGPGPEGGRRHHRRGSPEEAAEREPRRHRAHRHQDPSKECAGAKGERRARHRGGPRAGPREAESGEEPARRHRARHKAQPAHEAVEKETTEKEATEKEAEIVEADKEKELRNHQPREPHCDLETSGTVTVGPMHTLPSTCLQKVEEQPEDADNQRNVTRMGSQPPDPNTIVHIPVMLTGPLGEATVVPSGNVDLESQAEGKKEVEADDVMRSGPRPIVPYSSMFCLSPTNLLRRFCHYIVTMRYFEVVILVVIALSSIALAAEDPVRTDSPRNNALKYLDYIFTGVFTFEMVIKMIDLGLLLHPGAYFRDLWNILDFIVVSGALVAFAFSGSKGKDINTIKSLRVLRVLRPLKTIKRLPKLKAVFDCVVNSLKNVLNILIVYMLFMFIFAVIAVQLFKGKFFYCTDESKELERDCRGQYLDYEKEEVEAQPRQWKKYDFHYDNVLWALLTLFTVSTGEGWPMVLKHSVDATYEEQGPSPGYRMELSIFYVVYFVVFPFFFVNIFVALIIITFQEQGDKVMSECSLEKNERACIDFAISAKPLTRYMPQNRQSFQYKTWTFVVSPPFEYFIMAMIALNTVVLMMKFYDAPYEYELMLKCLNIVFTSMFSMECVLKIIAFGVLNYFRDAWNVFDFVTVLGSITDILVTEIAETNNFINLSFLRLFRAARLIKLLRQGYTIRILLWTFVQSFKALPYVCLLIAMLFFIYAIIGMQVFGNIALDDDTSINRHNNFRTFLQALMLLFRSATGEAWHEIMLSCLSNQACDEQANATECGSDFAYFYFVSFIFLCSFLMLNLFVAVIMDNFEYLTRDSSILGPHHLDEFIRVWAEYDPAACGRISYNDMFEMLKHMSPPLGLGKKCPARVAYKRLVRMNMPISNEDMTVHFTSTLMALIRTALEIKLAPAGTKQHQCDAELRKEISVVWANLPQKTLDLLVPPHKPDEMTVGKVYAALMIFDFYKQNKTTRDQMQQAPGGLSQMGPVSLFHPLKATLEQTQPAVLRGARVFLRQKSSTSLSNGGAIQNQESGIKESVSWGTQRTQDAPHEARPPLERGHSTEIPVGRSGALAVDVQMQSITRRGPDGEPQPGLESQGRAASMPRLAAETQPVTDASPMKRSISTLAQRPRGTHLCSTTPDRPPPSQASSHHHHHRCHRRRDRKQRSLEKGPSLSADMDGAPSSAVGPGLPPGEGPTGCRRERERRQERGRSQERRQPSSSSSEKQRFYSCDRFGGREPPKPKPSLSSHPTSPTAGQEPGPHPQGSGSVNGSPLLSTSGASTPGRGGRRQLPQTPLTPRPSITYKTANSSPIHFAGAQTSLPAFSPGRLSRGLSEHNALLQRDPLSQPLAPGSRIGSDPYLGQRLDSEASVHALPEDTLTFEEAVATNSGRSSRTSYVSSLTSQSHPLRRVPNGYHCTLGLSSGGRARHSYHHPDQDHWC
T1 sequence (P54284 whole entry, further chain): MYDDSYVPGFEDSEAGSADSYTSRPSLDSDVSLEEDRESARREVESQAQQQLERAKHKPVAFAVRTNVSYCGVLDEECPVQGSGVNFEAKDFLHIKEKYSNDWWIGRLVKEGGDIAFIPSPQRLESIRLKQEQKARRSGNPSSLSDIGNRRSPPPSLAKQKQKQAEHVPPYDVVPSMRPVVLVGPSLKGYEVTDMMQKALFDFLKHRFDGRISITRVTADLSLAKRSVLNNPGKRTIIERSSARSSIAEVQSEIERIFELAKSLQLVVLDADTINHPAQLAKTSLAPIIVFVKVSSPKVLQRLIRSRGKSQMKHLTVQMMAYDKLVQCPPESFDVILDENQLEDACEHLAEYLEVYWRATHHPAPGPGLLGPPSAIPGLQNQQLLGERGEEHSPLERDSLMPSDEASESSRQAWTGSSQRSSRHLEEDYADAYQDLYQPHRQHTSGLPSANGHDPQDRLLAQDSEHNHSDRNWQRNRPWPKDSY
T1 sequence (P54289 25-1103, further chain): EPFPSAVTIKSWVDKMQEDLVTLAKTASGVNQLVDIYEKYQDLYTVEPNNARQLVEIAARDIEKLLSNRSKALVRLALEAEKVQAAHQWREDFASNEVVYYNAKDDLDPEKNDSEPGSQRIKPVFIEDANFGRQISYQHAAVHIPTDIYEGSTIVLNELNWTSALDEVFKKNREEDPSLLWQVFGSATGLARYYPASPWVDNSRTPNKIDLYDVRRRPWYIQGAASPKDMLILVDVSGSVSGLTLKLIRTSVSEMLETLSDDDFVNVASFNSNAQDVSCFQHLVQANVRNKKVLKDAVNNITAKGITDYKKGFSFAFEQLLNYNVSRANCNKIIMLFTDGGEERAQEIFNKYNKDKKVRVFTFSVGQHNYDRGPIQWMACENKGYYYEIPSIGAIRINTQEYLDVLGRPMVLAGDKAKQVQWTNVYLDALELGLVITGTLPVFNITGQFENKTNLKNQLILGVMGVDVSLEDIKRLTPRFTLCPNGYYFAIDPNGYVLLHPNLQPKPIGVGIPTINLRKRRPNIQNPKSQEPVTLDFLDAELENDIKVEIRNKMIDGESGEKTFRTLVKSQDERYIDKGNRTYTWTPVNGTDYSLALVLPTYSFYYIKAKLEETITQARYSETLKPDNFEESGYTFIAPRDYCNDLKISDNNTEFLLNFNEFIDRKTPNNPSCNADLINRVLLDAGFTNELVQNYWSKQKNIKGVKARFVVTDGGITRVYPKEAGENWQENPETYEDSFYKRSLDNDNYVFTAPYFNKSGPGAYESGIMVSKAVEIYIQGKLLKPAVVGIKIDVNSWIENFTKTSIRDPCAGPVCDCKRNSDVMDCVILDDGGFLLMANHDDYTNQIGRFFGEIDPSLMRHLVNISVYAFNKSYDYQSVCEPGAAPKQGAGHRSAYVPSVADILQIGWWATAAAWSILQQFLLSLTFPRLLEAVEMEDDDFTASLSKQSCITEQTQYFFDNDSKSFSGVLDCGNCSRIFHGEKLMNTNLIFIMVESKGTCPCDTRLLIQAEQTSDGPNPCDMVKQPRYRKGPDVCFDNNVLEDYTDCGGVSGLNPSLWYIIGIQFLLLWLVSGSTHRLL

This assay has as its target T1, Human CaV2.2 channels (Homo sapiens, UniProt Q00975).
T1 construct: expressed in transfected cells; host or cells: HEK293
In words: Fluorescent (FLIPR) assay for CaV2.2 channels using potassium depolarization to induce channel opening. It counts as cell-based. As to conditions: 3 μM compound; 30 mM KCl assay buffer (inactivated channel state); HEK293 cells stably expressing human CaV2.2; read-out: Activity Category: %-Inhib (CaV2.2) @3 μM @30 mM KCl. The source says: In the process, the Ca^2+ influx is quantified in the FLIPR assay with the aid of a Ca^2+-sensitive dye (type Fluo-4, Molecular Probes Europe BV, Leiden, the Netherlands) in a fluorescent imaging plate reader (FLIPR 3, Molecular Devices, Sunnyvale, USA), as described hereinafter.
Human CaV2.2 channels were stably expressed in HEK293 cells together with alpha2-delta and beta subunits of voltage gated calcium channels. In addition, an inwardly rectifying potassium channel (Kir2.3) was stably expressed in these cells to augment control of the cell membrane potential by the concentration of extracellular potassium ions. Raise of the extracellular potassium concentration leads to depolarization of the membrane potential and thus regulates the voltage dependent state of CaV2.2 channels. For preparation, cells were seeded in black poly-D-lysine coated 96-well plates (Becton Dickinson, Biocoat 4640) in 100 μL medium [500 mL DMEM/F-12 plus Glutamax (Invitrogen 31331-093) plus 5.5 mL MEM NEAA 100× (Invitrogen 11140-035) plus 50 mL FBS decomplemented (Invitrogen 10270-106) plus 200 μg/mL Geneticin (Invitrogen 10131-027) plus 50 μg/mL Hygromycin B (Invitrogen 10687-010) plus 2 μg/mL Blasticidin (anti-bl5b Invivo-Gen) plus 0.2 μg/mL Puromycin (A 11138-03)] at a cell density of 30.000 cells per well. Plates were incubated at 37° C. (5% CO2) for 20 to 23 h. On the day of experiment medium was discarded and cells were loaded with Fluo 4 by addition of 100 μL of basic assay buffer (10 mM HEPES, 1 mM KCl, 149 mM NaCl, 0.8 mM CaCl2, 1.7 mM MgCl2, 10 mM Glucose, 0.1% BSA. pH 7.4) containing 2 μM Fluo 4 (Molecular Probes; F-14201), 0.01% pluronic acid (Molecular Probes; P-6866) and 2.5 mM probenecid (Molecular Probes; P36400). Cells were incubated in the dark at 25° C. for 60 min. Then dye containing buffer was discarded and 100 μL basic (1 mM KCl) or alternative (30 mM KCl) assay buffer was added. The alternative assay buffer contained altered concentrations of KCl (30 mM) and NaCl (120 mM) and was used in order to promote the inactivated channel state. After that 25 μL of basic or alternative assay buffer with or without test compound were added and cells were incubated again in the dark at 25° C. for 15 min. Fluorescence intensity was measured on a FLIPR 3 instrument (Molecular Devices Corp., Sunnyvale, Calif.) with excitation at 480 nm and emission at 535 nm. After continuously reading fluorescence for 30 sec, 50 μL of basic assay buffer containing 210 mM KCl (NaCl omitted) were added for depolarization. Peak fluorescent signal intensity was determined and the amplitude of the peak signal, normalized to base line, was used to measure channel inhibition by test compounds.
`Cc1cnc(CN(C)C(=O)c2c(-c3ccc(Cl)cc3F)c(C)c(C(F)(F)F)n2C2CC2)cn1` [Example 024, 3-(4-Chloro-2-fluoro-phenyl)-1-cyclopropyl-N,4-dimethyl-N-[(5-methyl-pyrazin-2-yl)-methyl]-5-(trifluoromethyl)-1H-pyrrole-2-carboxylic acid amide]: the inhibition at 3 µM is above 95%.

Regarding `Cc1c(-c2ccc(Cl)cc2)c(C(=O)N2CC(O)C2)n(C2CC2)c1C(F)(F)F` [Example 025, [3-(4-Chlorophenyl)-1-cyclopropyl-4-methyl-5-(trifluoromethyl)-1H-pyrrol-2-yl]-(3-hydroxy-azetidin-1-yl)-methanone], the inhibition at 3 µM is 75 to 95%.

In the case of `O=C(c1c(-c2ccc(Cl)cc2)cc(C(F)(F)F)n1C1CC1)N1CC(O)C1` [Example 026, [3-(4-Chlorophenyl)-1-cyclopropyl-5-(trifluoromethyl)-1H-pyrrol-2-yl]-(3-hydroxy-azetidin-1-yl)-methanone], the inhibition at 3 µM is 40 to 75%.

Turning to `Cc1noc(C2CCN(C(=O)c3c(-c4ccc(Cl)cc4)c(C)c(C(F)(F)F)n3C3CC3)CC2)n1` [Example 027, [3-(4-Chlorophenyl)-1-cyclopropyl-4-methyl-5-(trifluoromethyl)-1H-pyrrol-2-yl]-[4-(3-methyl-[1,2,4]oxadiazol-5-yl)-piperidin-1-yl]-methanone], the inhibition at 3 µM fell in the range of 75 to 95%.

Take `Cc1noc(C2CCN(C(=O)c3c(-c4ccc(Cl)cc4F)c(C)c(C(F)(F)F)n3C3CC3)CC2)n1` [Example 028, [3-(4-Chloro-2-fluoro-phenyl)-1-cyclopropyl-4-methyl-5-(trifluoromethyl)-1H-pyrrol-2-yl]-[4-(3-methyl-[1,2,4]oxadiazol-5-yl)-piperidin-1-yl]-methanone]: the inhibition at 3 µM was 75 to 95%.

As to `Cc1noc(C2CCN(C(=O)c3c(-c4ccc(Cl)cc4)cc(C(F)(F)F)n3C3CC3)CC2)n1` [Example 029, [3-(4-Chlorophenyl)-1-cyclopropyl-5-(trifluoromethyl)-1H-pyrrol-2-yl]-[4-(3-methyl-[1,2,4]oxadiazol-5-yl)-piperidin-1-yl]-methanone], the inhibition at 3 µM lay within 75 to 95%.

Consider `Cc1c(-c2ccc(Cl)cc2)c(C(=O)N2CCOC(C)(C)C2)n(C2CC2)c1C(F)(F)F` [Example 032, [3-(4-Chlorophenyl)-1-cyclopropyl-4-methyl-5-(trifluoromethyl)-1H-pyrrol-2-yl]-(2,2-dimethyl-morpholin-4-yl)-methanone], for which the inhibition at 3 µM is above 95%.

Regarding `Cc1c(-c2ccc(Cl)cc2F)c(C(=O)N2CCOC(C)(C)C2)n(C2CC2)c1C(F)(F)F` [Example 033, [3-(4-Chloro-2-fluoro-phenyl)-1-cyclopropyl-4-methyl-5-(trifluoromethyl)-1H-pyrrol-2-yl]-(2,2-dimethyl-morpholin-4-yl)-methanone], the inhibition at 3 µM is 75 to 95%.

`CC1(C)CN(C(=O)c2c(-c3ccc(Cl)cc3)cc(C(F)(F)F)n2C2CC2)CCO1` [Example 034, [3-(4-Chlorophenyl)-1-cyclopropyl-5-(trifluoromethyl)-1H-pyrrol-2-yl]-(2,2-dimethyl-morpholin-4-yl)-methanone]: the inhibition at 3 µM lay in the range of 75 to 95%.

As for `CN(CC(C)(C)C)C(=O)c1c(-c2ccc(Cl)cc2)cc(C(F)(F)F)n1C1CC1` [Example 035, 3-(4-Chlorophenyl)-1-cyclopropyl-N-(2,2-dimethyl-propyl)-N-methyl-5-(trifluoromethyl)-1H-pyrrole-2-carboxylic acid amide], the inhibition at 3 µM was 40 to 75%.

`CN(CC(C)(C)CO)C(=O)c1c(-c2ccc(Cl)cc2)cc(C(F)(F)F)n1C1CC1` [Example 036, 3-(4-Chlorophenyl)-1-cyclopropyl-N-(3-hydroxy-2,2-dimethyl-propyl)-N-methyl-5-(trifluoromethyl)-1H-pyrrole-2-carboxylic acid amide]: the inhibition at 3 µM was 75 to 95%.

Turning to `CN(CCS(C)(=O)=O)C(=O)c1c(-c2ccc(Cl)cc2)cc(C(F)(F)F)n1C1CC1` [Example 037, 3-(4-Chlorophenyl)-1-cyclopropyl-N-methyl-N-(2-methylsulfonyl-ethyl)-5-(trifluoromethyl)-1H-pyrrole-2-carboxylic acid amide], the inhibition at 3 µM was 40 to 75%.

With `O=C(c1c(-c2ccc(Cl)cc2)cc(C(F)(F)F)n1C1CC1)N1CCOCC1` [Example 038, [3-(4-Chlorophenyl)-1-cyclopropyl-5-(trifluoromethyl)-1H-pyrrol-2-yl]-morpholin-4-yl-methanone], the inhibition at 3 µM was in the range of 40 to 75%.

As to `Cc1c(-c2ccc(Cl)cc2)c(C(=O)N(C)CC(C)(C)C)n(C2CC2)c1C(F)(F)F` [Example 039, 3-(4-Chlorophenyl)-1-cyclopropyl-N-(2,2-dimethyl-propyl)-N,4-dimethyl-5-(trifluoromethyl)-1H-pyrrole-2-carboxylic acid amide], the inhibition at 3 µM lay in the range of 75 to 95%.

As to `Cc1c(-c2ccc(Cl)cc2)c(C(=O)N(C)CC(C)(C)CO)n(C2CC2)c1C(F)(F)F` [Example 040, 3-(4-Chlorophenyl)-1-cyclopropyl-N-(3-hydroxy-2,2-dimethyl-propyl)-N,4-dimethyl-5-(trifluoromethyl)-1H-pyrrole-2-carboxylic acid amide], the inhibition at 3 µM was in the range of 75 to 95%.

For the compound `Cc1c(-c2ccc(Cl)cc2)c(C(=O)N(C)CCS(C)(=O)=O)n(C2CC2)c1C(F)(F)F` [Example 041, 3-(4-Chlorophenyl)-1-cyclopropyl-N,4-dimethyl-N-(2-methylsulfonyl-ethyl)-5-(trifluoromethyl)-1H-pyrrole-2-carboxylic acid amide], the inhibition at 3 µM fell in the range of 75 to 95%.

On to `Cc1c(-c2ccc(Cl)cc2)c(C(=O)N2CCOC(C)(C)C2)n(C2CCC2)c1C(F)(F)F` [Example 042, [3-(4-Chlorophenyl)-1-cyclobutyl-4-methyl-5-(trifluoromethyl)-1H-pyrrol-2-yl]-(2,2-dimethyl-morpholin-4-yl)-methanone], for which the inhibition at 3 µM fell in the range of 75 to 95%.

For `Cc1c(-c2ccc(Cl)cc2)c(C(=O)N2CCOCC2)n(C2CC2)c1C(F)(F)F` [Example 043, [3-(4-Chlorophenyl)-1-cyclopropyl-4-methyl-5-(trifluoromethyl)-1H-pyrrol-2-yl]-morpholin-4-yl-methanone], the inhibition at 3 µM lay within 75 to 95%.

For the compound `Cc1c(-c2ccc(Cl)cc2)c(C(=O)N2CCS(=O)(=O)C(C)(C)C2)n(C2CC2)c1C(F)(F)F` [Example 044, [3-(4-Chlorophenyl)-1-cyclopropyl-4-methyl-5-(trifluoromethyl)-1H-pyrrol-2-yl]-(2,2-dimethyl-1,1-dioxo-[1,4]thiazinan-4-yl)-methanone], the inhibition at 3 µM fell in the range of 75 to 95%.

Consider `CC(C)Cn1c(C(F)(F)F)cc(-c2ccc(F)cc2)c1C(=O)N1CCOC(C)(C)C1` [Example 045, (2,2-Dimethyl-morpholin-4-yl)-[3-(4-fluorophenyl)-1-(2-methyl-propyl)-5-(trifluoromethyl)-1H-pyrrol-2-yl]-methanone], for which the inhibition at 3 µM is 75 to 95%.

Turning to `CC(C)Cn1c(C(F)(F)F)cc(-c2ccc(F)cc2)c1C(=O)N(C)C1CCOCC1` [Example 046, 3-(4-Fluorophenyl)-N-methyl-1-(2-methyl-propyl)-N-tetrahydro-pyran-4-yl-5-(trifluoromethyl)-1H-pyrrole-2-carboxylic acid amide], the inhibition at 3 µM was above 95%.

`Cc1cc(CN(C)C(=O)c2c(-c3ccc(F)cc3)cc(C(F)(F)F)n2CC(C)C)no1` [Example 047, 3-(4-Fluorophenyl)-N-methyl-N-[(5-methyl-isoxazol-3-yl)-methyl]-1-(2-methyl-propyl)-5-(trifluoromethyl)-1H-pyrrole-2-carboxylic acid amide]: the inhibition at 3 µM was above 95%.

On to `Cc1c(-c2ccc(Cl)cc2)c(C(=O)N(C)Cc2ccncn2)n(CC(C)C)c1C(F)(F)F` [Example 048, 3-(4-Chlorophenyl)-N,4-dimethyl-1-(2-methyl-propyl)-N-(pyrimidin-4-yl-methyl)-5-(trifluoromethyl)-1H-pyrrole-2-carboxylic acid amide], for which the inhibition at 3 µM is above 95%.

The record behind these values is patent publication US20160289186A1, “FLUOROMETHYL-SUBSTITUTED PYRROLE CA[…]” (Grunenthal GmbH, priority 2013, published 2016).
